Test results taken from article PMC10318143, “Optimized bisubstrate inhibitors for the actin N-terminal acetyltransferase NAA80” (Frontiers in Chemistry, 2023).
Read-outs that look alike come from different tables or passages of the source. *1 amine or outer side, *2 acyl side, *3 side chain or, on linkers, in order; H or OH if unused. Where a SMILES comes first, the peptide text is derived from it. [ ]: non-standard residue; d: D form. The star is where a group is joined. Pantoyl(4-O-3'-P-ADP) = CC(C)(COP(=O)(O)OP(=O)(O)OC[C@H]1O[C@@H](n2cnc3c(N)ncnc32)[C@H](O)[C@@H]1OP(=O)(O)O)[C@@H](O)C(=O)*; NHCH2CH2SCH2CO = O=C(CSCCN[*:1])[*:2]; βAla = NCCC(=O)O

How the values were obtained:
MBP-hNAA80 [1] = target: T1, MBP-hNAA80 (Homo sapiens, UniProt Q93015); set-up: method as in Goris et al., 2018; settings: DTNB assay; ± standard deviation; ref Goris et al., 2018; cited from earlier work
T1 construct: made in house; host or cells: Escherichia coli BL21 star
T1 sequence (Q93015 1-286): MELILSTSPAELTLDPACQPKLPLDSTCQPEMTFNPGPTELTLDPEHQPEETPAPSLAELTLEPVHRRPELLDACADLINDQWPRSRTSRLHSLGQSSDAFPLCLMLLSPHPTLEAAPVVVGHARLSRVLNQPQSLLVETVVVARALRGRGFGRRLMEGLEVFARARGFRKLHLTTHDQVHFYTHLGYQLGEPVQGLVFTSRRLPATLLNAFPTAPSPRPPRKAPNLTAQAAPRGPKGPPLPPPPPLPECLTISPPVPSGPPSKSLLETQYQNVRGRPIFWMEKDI

MBP-hNAA80 [2] = target: T1, MBP-hNAA80; test: In vitro DTNB Nt-acetyltransferase inhibitor assay; assay type: biochemical; settings: 300 μM Ac-CoA, 300 μM substrate peptide, Tris pH 8.5, triplicates, ± standard deviation
Procedure: The enzymatic activity of MBP-hNAA80 was measured using a 5,5′-dithiobis-(2-nitrobenzoic acid, DTNB) assay as described previously by Foyn et al. ([Foyn et al., 2017]) and Drazic et al. ([Drazic et al., 2018]) Briefly, the thiol group exposed in the enzymatic product CoA cleaves DTNB and produces 2-nitro-5-thiobenzonate (TNB^−) which ionize to TNB^2- in neutral or alkaline pH and is readily quantified by measuring the absorbance at 412 nm.
An in vitro DTNB assay with enzyme (10–600 nM), 300 μM Ac-CoA, 300 μM substrate peptide, acetylation buffer (Tris, pH 8.5), and at least nine different inhibitor concentrations ranging from 0 to 500 μM was used to calculate the IC50 value for each bisubstrate inhibitor applied in the assay. The reaction was carried out as previously described ([Drazic et al., 2018]; [Goris et al., 2018]), and within a timeframe of 15–50 min. All measurements were performed in triplicates.

Compound	IC50 (MBP-hNAA80 [1])	IC50 (MBP-hNAA80 [2])
CC[C@H](C)[C@H](NC(=O)[C@H](CC(=O)O)NC(=O)[C@H](CC(=O)O)NC(=O)[C@H](CC(=O)O)NC(=O)CSCCNC(=O)CCNC(=O)[C@H](O)C(C)(C)COP(=O)(O)OP(=O)(O)OC[C@H]1O[C@@H](n2cnc3c(N)ncnc32)[C@H](O)[C@@H]1OP(=O)(O)O)C(N)=O [CoA-DDDI-NH2, CoA-Ac-DDDI-NH2] ({Pantoyl(4-O-3'-P-ADP)-βAla}-[NHCH2CH2SCH2CO]DDDI-NH2)	380 ± 100 nM	–
CC[C@H](C)[C@H](NC(=O)[C@H](CCC(=O)O)NC(=O)[C@H](CC(=O)O)NC(=O)[C@H](CC(=O)O)NC(=O)CSCCNC(=O)CCNC(=O)[C@H](O)C(C)(C)COP(=O)(O)OP(=O)(O)OC[C@H]1O[C@@H](n2cnc3c(N)ncnc32)[C@H](O)[C@@H]1OP(=O)(O)O)C(N)=O [CoA-DDEI-NH2, CoA-Ac-DDEI-NH2] ({Pantoyl(4-O-3'-P-ADP)-βAla}-[NHCH2CH2SCH2CO]DDEI-NH2)	–	2670 ± 670 nM
CC[C@H](C)[C@H](NC(=O)[C@H](CCC(=O)O)NC(=O)[C@H](CCC(=O)O)NC(=O)[C@H](CC(=O)O)NC(=O)CSCCNC(=O)CCNC(=O)[C@H](O)C(C)(C)COP(=O)(O)OP(=O)(O)OC[C@H]1O[C@@H](n2cnc3c(N)ncnc32)[C@H](O)[C@@H]1OP(=O)(O)O)C(N)=O [CoA-DEEI-NH2, CoA-Ac-DEEI-NH2] ({Pantoyl(4-O-3'-P-ADP)-βAla}-[NHCH2CH2SCH2CO]DEEI-NH2)	–	1220 ± 330 nM
CC(C)C[C@H](NC(=O)[C@H](CCC(=O)O)NC(=O)[C@H](CCC(=O)O)NC(=O)[C@H](CC(=O)O)NC(=O)CSCCNC(=O)CCNC(=O)[C@H](O)C(C)(C)COP(=O)(O)OP(=O)(O)OC[C@H]1O[C@@H](n2cnc3c(N)ncnc32)[C@H](O)[C@@H]1OP(=O)(O)O)C(N)=O [CoA-DEEL-NH2, CoA-Ac-DEEL-NH2] ({Pantoyl(4-O-3'-P-ADP)-βAla}-[NHCH2CH2SCH2CO]DEEL-NH2)	–	4730 ± 1430 nM
CC[C@H](C)[C@H](NC(=O)[C@H](CC(=O)O)NC(=O)[C@H](CC(=O)O)NC(=O)[C@H](CCC(=O)O)NC(=O)CSCCNC(=O)CCNC(=O)[C@H](O)C(C)(C)COP(=O)(O)OP(=O)(O)OC[C@H]1O[C@@H](n2cnc3c(N)ncnc32)[C@H](O)[C@@H]1OP(=O)(O)O)C(N)=O [CoA-EDDI-NH2, CoA-Ac-EDDI-NH2] ({Pantoyl(4-O-3'-P-ADP)-βAla}-[NHCH2CH2SCH2CO]EDDI-NH2)	–	120 ± 50 nM
CC[C@H](C)[C@H](NC(=O)[C@H](CCC(=O)O)NC(=O)[C@H](CC(=O)O)NC(=O)[C@H](CCC(=O)O)NC(=O)CSCCNC(=O)CCNC(=O)[C@H](O)C(C)(C)COP(=O)(O)OP(=O)(O)OC[C@H]1O[C@@H](n2cnc3c(N)ncnc32)[C@H](O)[C@@H]1OP(=O)(O)O)C(N)=O [CoA-EDEI-NH2, CoA-Ac-EDEI-NH2] ({Pantoyl(4-O-3'-P-ADP)-βAla}-[NHCH2CH2SCH2CO]EDEI-NH2)	–	760 ± 180 nM
CC(C)C[C@H](NC(=O)[C@H](CCC(=O)O)NC(=O)[C@H](CC(=O)O)NC(=O)[C@H](CCC(=O)O)NC(=O)CSCCNC(=O)CCNC(=O)[C@H](O)C(C)(C)COP(=O)(O)OP(=O)(O)OC[C@H]1O[C@@H](n2cnc3c(N)ncnc32)[C@H](O)[C@@H]1OP(=O)(O)O)C(N)=O [CoA-EDEL-NH2, CoA-Ac-EDEL-NH2] ({Pantoyl(4-O-3'-P-ADP)-βAla}-[NHCH2CH2SCH2CO]EDEL-NH2)	–	150 ± 20 nM
CC(C)C[C@H](NC(=O)[C@H](CCC(N)=O)NC(=O)[C@H](CC(=O)O)NC(=O)[C@H](CCC(=O)O)NC(=O)CSCCNC(=O)CCNC(=O)[C@H](O)C(C)(C)COP(=O)(O)OP(=O)(O)OC[C@H]1O[C@@H](n2cnc3c(N)ncnc32)[C@H](O)[C@@H]1OP(=O)(O)O)C(N)=O [CoA-EDQL-NH2, CoA-Ac-EDQL-NH2] ({Pantoyl(4-O-3'-P-ADP)-βAla}-[NHCH2CH2SCH2CO]EDQL-NH2)	–	850 ± 50 nM
CC[C@H](C)[C@H](NC(=O)[C@H](CC(=O)O)NC(=O)[C@H](CCC(=O)O)NC(=O)[C@H](CCC(=O)O)NC(=O)CSCCNC(=O)CCNC(=O)[C@H](O)C(C)(C)COP(=O)(O)OP(=O)(O)OC[C@H]1O[C@@H](n2cnc3c(N)ncnc32)[C@H](O)[C@@H]1OP(=O)(O)O)C(N)=O [CoA-EEDI-NH2, CoA-Ac-EEDI-NH2] ({Pantoyl(4-O-3'-P-ADP)-βAla}-[NHCH2CH2SCH2CO]EEDI-NH2)	–	170 ± 40 nM
CC(C)C[C@H](NC(=O)[C@H](CC(=O)O)NC(=O)[C@H](CCC(=O)O)NC(=O)[C@H](CCC(=O)O)NC(=O)CSCCNC(=O)CCNC(=O)[C@H](O)C(C)(C)COP(=O)(O)OP(=O)(O)OC[C@H]1O[C@@H](n2cnc3c(N)ncnc32)[C@H](O)[C@@H]1OP(=O)(O)O)C(N)=O [CoA-EEDL-NH2, CoA-Ac-EEDL-NH2] ({Pantoyl(4-O-3'-P-ADP)-βAla}-[NHCH2CH2SCH2CO]EEDL-NH2)	–	1760 ± 520 nM
CC(C)C[C@H](NC(=O)[C@H](CCC(=O)O)NC(=O)[C@H](CCC(=O)O)NC(=O)[C@H](CCC(=O)O)NC(=O)CSCCNC(=O)CCNC(=O)[C@H](O)C(C)(C)COP(=O)(O)OP(=O)(O)OC[C@H]1O[C@@H](n2cnc3c(N)ncnc32)[C@H](O)[C@@H]1OP(=O)(O)O)C(N)=O [CoA-EEEL-NH2, CoA-Ac-EEEL-NH2] ({Pantoyl(4-O-3'-P-ADP)-βAla}-[NHCH2CH2SCH2CO]EEEL-NH2)	–	1160 ± 120 nM
CC(C)C[C@H](NC(=O)[C@H](CCC(=O)O)NC(=O)[C@H](CO)NC(=O)[C@H](CCC(=O)O)NC(=O)CSCCNC(=O)CCNC(=O)[C@H](O)C(C)(C)COP(=O)(O)OP(=O)(O)OC[C@H]1O[C@@H](n2cnc3c(N)ncnc32)[C@H](O)[C@@H]1OP(=O)(O)O)C(N)=O [CoA-ESEL-NH2, CoA-Ac-ESEL-NH2] ({Pantoyl(4-O-3'-P-ADP)-βAla}-[NHCH2CH2SCH2CO]ESEL-NH2)	–	11500 ± 3230 nM
CC(C)C[C@H](NC(=O)[C@H](CCC(=O)O)NC(=O)[C@H](CC(=O)O)NC(=O)[C@@H]1CCCN1C(=O)CSCCNC(=O)CCNC(=O)[C@H](O)C(C)(C)COP(=O)(O)OP(=O)(O)OC[C@H]1O[C@@H](n2cnc3c(N)ncnc32)[C@H](O)[C@@H]1OP(=O)(O)O)C(N)=O [CoA-PDEL-NH2, CoA-Ac-PDEL-NH2] ({Pantoyl(4-O-3'-P-ADP)-βAla}-[NHCH2CH2SCH2CO]PDEL-NH2)	–	13400 ± 2240 nM
CoA-EEEI-NH2: previously reported bisubstrate inhibitor: coenzyme A conjugated via acetyl linker to tetrapeptide amide EEEI (γ-actin N-terminus) (not fully specified; N-terminal amine acylated with acetyl linker thioether-bonded to coenzyme A sulfur (CoA-S-CH2-CO-); C-terminal amide)	1160 ± 110 nM	–
CoA-MDEL-NH2: previously reported bisubstrate inhibitor: coenzyme A conjugated via acetyl linker to tetrapeptide amide MDEL (not fully specified; N-terminal amine acylated with acetyl linker thioether-bonded to coenzyme A sulfur (CoA-S-CH2-CO-); C-terminal amide)	1260 ± 100 nM	–
